The target in test [1] is Serine/threonine-protein kinase mTOR (Homo sapiens) (UniProt P42345). In words: Affinity Phenotypic Cellular interaction: (Anti-phosphorylation of AKT(S473) and S6K(T389) in insulin-like growth factor-I (IGF-I)-induced Rat1, the PIK3CA mutant MDA361, and PTEN-null U87MG cells) EUB0000607a MTOR. Format: functional, cell-based. Also on record: recommended concentration 1 uM. Conditions: Affinity Phenotypic Cellular Source Knowledge https://pubmed.ncbi.nlm.nih.gov/20068177/.

In test [2] the target is Protein-arginine deiminase type-4 (Homo sapiens, UniProt Q9UM07). The class given is functional.
The target of test [3] is T1, Bromodomain testis-specific protein (Homo sapiens, UniProt Q58F21). In words: Affinity Phenotypic Cellular interaction: (Meso-scale discovery human IL6 assay (cytokine production in LPS stimulated PBMC cells)) EUB0000102c BRDT. Format: functional, cell-based. Also on record: mode of action Inhibitor, recommended concentration 1 uM.
Test [4] deals with T2, Bromodomain-containing protein 3 (Homo sapiens, UniProt Q15059). Format: functional, tissue-based, Blood.
Test [5] concerns the target T1, Bromodomain testis-specific protein. In words: Affinity Phenotypic Cellular interaction: (Meso-scale discovery human IL6 assay (cytokine production in LPS stimmulated human WB)) EUB0000102c BRDT. Format: functional, tissue-based, Blood. Also noted: mode of action Inhibitor, recommended concentration 1 uM.
In test [6] the target is T2, Bromodomain-containing protein 3. The class given is functional, tissue-based, Blood. The source holds these as a separate data set.
Test [7] addresses T1, Bromodomain testis-specific protein. In words: Affinity Phenotypic Cellular interaction: (Meso-scale discovery human IL6 assay (cytokine production in LPS stimulated human WB)) EUB0000102c BRDT. Format: functional, tissue-based, Blood. Also noted: mode of action Inhibitor, recommended concentration 1 uM.
The target of test [8] is T2, Bromodomain-containing protein 3. The class given is functional, cell-based, PBMC.
The target in the next test is Activated CDC42 kinase 1 (Homo sapiens, UniProt Q07912). Format: functional, cell-based, T-cell.
The target of test [9] is Protein arginine N-methyltransferase 1 (Homo sapiens, UniProt Q99873). In words: Affinity Phenotypic Cellular interaction: (Western Blot (inhibitor of H4R3 methylation in MCF-7 cells)) EUB0000261b PRMT1. The class given is functional, cell-based, MCF7. Also noted: mode of action Negative control for MS023, recommended concentration 1 uM.
For test [10], the target named is Protein arginine N-methyltransferase 8 (Homo sapiens, UniProt Q9NR22). In words: Affinity Phenotypic Cellular interaction: (Western Blot (inhibitor of H4R3 methylation in MCF-7 cells)) EUB0000261b PRMT8. Format: functional, cell-based, MCF7. Also on record: mode of action Negative control for MS023, recommended concentration 1 uM.
Test [11] addresses Protein arginine N-methyltransferase 3 (Homo sapiens, UniProt O60678). In words: Affinity Phenotypic Cellular interaction: (Western Blot (inhibitor of H4R3 methylation in MCF-7 cells)) EUB0000261b PRMT3. Format: functional, cell-based, MCF7. Also on record: mode of action Negative control for MS023, recommended concentration 1 uM.
Test [12] addresses T3, Cytoplasmic tyrosine-protein kinase BMX (Homo sapiens) (UniProt P51813).
T3 sequence (whole entry): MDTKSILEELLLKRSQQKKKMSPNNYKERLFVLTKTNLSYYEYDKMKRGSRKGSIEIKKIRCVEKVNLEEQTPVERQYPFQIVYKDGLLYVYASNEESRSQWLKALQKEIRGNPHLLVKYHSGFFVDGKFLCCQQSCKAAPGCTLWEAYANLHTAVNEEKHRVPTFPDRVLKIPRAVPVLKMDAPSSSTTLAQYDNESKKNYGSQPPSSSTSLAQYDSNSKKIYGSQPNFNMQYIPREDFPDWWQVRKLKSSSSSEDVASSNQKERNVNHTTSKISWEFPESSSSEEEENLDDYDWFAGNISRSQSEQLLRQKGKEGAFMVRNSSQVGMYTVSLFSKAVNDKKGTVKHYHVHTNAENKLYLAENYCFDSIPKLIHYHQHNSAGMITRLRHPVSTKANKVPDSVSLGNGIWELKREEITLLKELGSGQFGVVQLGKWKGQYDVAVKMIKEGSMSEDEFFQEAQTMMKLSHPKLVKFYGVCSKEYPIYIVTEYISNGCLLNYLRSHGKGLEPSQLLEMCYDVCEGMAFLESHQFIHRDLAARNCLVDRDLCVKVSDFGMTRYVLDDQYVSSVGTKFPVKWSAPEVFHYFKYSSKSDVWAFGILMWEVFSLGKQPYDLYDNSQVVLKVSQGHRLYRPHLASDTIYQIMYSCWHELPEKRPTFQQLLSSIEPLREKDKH
In words: Affinity Phenotypic Cellular interaction: (Antiproliferative activity against Tel-kinase transformed Ba/F3 cell line, TEL-BMX) EUB0000045b BMX. Format: functional, cell-based. Also on record: recommended concentration 1 uM. The settings on record: BaF3, Affinity Phenotypic Cellular Source Knowledge https://pubmed.ncbi.nlm.nih.gov/23594111/.

Test [13] has as its target T3, Cytoplasmic tyrosine-protein kinase BMX (Homo sapiens). In words: Affinity Phenotypic Cellular interaction: (Antiproliferative activity assay (prostate cancer cell line, DU-145)) EUB0000045b BMX. The class given is functional, cell-based. Also noted: recommended concentration 1 uM. The settings on record: Affinity Phenotypic Cellular Source Knowledge https://pubmed.ncbi.nlm.nih.gov/23594111/.

Test [14] has the same target. In words: Affinity Phenotypic Cellular interaction: (Antiproliferative activity against Tel-kinase transformed Cys496Ser Ba/F3 cell line, TEL-BMX) EUB0000045b BMX. Also noted: recommended concentration 1 uM. The class given is functional, cell-based. The settings on record: BaF3, Affinity Phenotypic Cellular Source Knowledge https://pubmed.ncbi.nlm.nih.gov/23594111/.

For test [15] the target is unchanged. In words: Affinity Phenotypic Cellular interaction: (Antiproliferative activity assay (prostate cancer cell line, C4-2)) EUB0000045b BMX. Format: functional, cell-based. The settings on record: LNCaP C4-2, Affinity Phenotypic Cellular Source Knowledge https://pubmed.ncbi.nlm.nih.gov/23594111/. Also noted: recommended concentration 1 uM.
The target is the same in test [16]. In words: Affinity Phenotypic Cellular interaction: (Antiproliferative activity assay (prostate cancer cell line, VCAP)) EUB0000045b BMX. The settings on record: Affinity Phenotypic Cellular Source Knowledge https://pubmed.ncbi.nlm.nih.gov/23594111/. Format: functional, cell-based. Also on record: recommended concentration 1 uM.
For test [17] the target is unchanged. In words: Affinity Phenotypic Cellular interaction: (Antiproliferative activity against Tel-kinase wt Ba/F3 cell line) EUB0000045b BMX. Also noted: recommended concentration 1 uM. The settings on record: BaF3, Affinity Phenotypic Cellular Source Knowledge https://pubmed.ncbi.nlm.nih.gov/23594111/. Format: functional, cell-based.
The target in test [18] is Tyrosine-protein kinase BTK (Homo sapiens) (UniProt Q06187). Conditions: CWR22R, Affinity Phenotypic Cellular Source Knowledge https://pubmed.ncbi.nlm.nih.gov/23594111/.
For test [19] the target is unchanged. The settings on record: LNCaP C4-2, Affinity Phenotypic Cellular Source Knowledge https://pubmed.ncbi.nlm.nih.gov/23594111/.
Test [20] shares this target. The settings on record: BaF3, Affinity Phenotypic Cellular Source Knowledge https://pubmed.ncbi.nlm.nih.gov/23594111/.
Test [21] has the same target. Conditions: PC-3, Affinity Phenotypic Cellular Source Knowledge https://pubmed.ncbi.nlm.nih.gov/23594111/.
Test [22] addresses T3, Cytoplasmic tyrosine-protein kinase BMX (Homo sapiens). In words: Affinity Phenotypic Cellular interaction: (Antiproliferative activity assay (prostate cancer cell line, RV-1)) EUB0000045b BMX. The class given is functional, cell-based. Also noted: recommended concentration 1 uM. The settings on record: CWR22R, Affinity Phenotypic Cellular Source Knowledge https://pubmed.ncbi.nlm.nih.gov/23594111/.

Test [23] concerns the target Tyrosine-protein kinase BTK (Homo sapiens) (UniProt Q06187). The settings on record: DU-145, Affinity Phenotypic Cellular Source Knowledge https://pubmed.ncbi.nlm.nih.gov/23594111/.
For test [24] the target is unchanged. The settings on record: VCaP, Affinity Phenotypic Cellular Source Knowledge https://pubmed.ncbi.nlm.nih.gov/23594111/.
In test [25] the target is T3, Cytoplasmic tyrosine-protein kinase BMX (Homo sapiens). In words: Affinity Phenotypic Cellular interaction: (Antiproliferative activity assay (prostate cancer cell line, PC-3)) EUB0000045b BMX. The class given is functional, cell-based. The settings on record: Affinity Phenotypic Cellular Source Knowledge https://pubmed.ncbi.nlm.nih.gov/23594111/. Also on record: recommended concentration 1 uM.

The text below walks through data of ChEMBL document CHEMBL5444388, “Affinity Phenotypic Cellular Literature for EUbOPEN Chemogenomic Library” (2024).

T2 sequence (Q15059 whole entry): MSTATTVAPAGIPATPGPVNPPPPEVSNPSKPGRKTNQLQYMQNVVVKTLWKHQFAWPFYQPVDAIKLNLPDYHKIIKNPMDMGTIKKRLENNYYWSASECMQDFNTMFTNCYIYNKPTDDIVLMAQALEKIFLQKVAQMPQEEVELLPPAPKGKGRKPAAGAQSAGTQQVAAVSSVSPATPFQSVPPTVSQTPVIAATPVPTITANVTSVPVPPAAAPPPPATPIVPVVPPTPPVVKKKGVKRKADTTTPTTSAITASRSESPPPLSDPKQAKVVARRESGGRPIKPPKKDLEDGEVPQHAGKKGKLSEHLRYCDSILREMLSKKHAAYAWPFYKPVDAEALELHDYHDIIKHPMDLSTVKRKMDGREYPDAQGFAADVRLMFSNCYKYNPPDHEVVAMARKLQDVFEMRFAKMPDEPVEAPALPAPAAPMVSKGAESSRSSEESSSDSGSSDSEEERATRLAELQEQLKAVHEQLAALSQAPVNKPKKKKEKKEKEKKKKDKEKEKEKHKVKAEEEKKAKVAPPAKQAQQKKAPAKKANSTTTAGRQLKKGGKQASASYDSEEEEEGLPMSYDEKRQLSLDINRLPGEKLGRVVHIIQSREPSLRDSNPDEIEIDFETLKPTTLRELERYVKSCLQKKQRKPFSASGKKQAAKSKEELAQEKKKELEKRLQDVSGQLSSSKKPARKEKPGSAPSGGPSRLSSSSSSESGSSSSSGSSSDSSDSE
Chain of Tyrosine-protein kinase BTK (Homo sapiens) (Q06187 whole entry): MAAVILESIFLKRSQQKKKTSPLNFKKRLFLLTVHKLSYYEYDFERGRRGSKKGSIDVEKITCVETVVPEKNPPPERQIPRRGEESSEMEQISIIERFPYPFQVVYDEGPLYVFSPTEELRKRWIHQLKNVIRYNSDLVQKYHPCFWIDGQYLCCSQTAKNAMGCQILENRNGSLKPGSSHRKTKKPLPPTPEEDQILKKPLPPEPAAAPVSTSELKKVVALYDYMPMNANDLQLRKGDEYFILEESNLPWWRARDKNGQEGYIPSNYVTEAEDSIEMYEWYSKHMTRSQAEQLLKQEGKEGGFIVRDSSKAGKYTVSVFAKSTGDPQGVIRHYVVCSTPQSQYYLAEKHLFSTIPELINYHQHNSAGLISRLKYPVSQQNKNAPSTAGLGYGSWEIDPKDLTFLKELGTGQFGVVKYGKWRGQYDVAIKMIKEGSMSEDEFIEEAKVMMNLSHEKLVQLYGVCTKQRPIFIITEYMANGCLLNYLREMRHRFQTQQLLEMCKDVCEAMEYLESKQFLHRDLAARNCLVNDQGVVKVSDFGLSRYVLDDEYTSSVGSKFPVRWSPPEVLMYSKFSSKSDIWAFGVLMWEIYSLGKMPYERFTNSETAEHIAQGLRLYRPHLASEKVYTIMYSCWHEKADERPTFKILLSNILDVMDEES
Chain of Activated CDC42 kinase 1 (Q07912 whole entry): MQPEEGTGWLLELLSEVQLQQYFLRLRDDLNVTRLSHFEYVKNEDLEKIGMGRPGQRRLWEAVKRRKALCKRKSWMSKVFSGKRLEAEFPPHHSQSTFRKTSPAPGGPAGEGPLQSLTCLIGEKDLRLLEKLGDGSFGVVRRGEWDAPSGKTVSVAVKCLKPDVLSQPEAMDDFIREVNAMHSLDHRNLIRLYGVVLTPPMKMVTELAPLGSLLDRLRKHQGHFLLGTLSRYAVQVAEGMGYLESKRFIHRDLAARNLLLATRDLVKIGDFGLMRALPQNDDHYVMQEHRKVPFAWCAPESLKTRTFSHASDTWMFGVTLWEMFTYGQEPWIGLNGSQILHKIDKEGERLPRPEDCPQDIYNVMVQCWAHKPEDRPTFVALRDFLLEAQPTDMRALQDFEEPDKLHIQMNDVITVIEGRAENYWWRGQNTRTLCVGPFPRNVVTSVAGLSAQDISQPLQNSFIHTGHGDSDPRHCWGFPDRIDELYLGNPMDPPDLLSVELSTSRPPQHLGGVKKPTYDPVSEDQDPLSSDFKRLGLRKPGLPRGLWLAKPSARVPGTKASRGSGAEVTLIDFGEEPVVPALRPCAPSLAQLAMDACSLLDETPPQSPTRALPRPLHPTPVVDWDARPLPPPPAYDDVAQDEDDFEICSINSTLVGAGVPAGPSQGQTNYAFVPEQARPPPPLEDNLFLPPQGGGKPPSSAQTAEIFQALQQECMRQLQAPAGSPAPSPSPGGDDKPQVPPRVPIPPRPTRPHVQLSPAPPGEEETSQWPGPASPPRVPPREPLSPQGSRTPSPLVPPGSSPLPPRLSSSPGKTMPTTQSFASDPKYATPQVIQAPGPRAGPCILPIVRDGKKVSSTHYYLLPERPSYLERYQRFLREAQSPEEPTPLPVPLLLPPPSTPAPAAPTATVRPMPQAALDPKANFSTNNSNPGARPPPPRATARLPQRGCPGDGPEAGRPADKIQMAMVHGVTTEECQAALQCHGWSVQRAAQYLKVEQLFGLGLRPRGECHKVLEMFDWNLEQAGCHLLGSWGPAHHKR
Chain of Protein arginine N-methyltransferase 8 (Q9NR22 whole entry): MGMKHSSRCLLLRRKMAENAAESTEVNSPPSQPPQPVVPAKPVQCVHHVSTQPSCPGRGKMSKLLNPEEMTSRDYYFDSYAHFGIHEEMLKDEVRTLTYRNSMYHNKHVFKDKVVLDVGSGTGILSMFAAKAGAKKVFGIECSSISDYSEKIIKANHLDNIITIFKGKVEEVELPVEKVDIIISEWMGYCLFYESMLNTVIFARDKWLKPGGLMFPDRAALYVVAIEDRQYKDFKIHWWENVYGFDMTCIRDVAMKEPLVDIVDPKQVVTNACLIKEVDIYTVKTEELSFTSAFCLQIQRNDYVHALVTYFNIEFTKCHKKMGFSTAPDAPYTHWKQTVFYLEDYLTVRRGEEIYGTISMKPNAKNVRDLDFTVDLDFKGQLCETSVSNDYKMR
Chain of Protein-arginine deiminase type-4 (Q9UM07 whole entry): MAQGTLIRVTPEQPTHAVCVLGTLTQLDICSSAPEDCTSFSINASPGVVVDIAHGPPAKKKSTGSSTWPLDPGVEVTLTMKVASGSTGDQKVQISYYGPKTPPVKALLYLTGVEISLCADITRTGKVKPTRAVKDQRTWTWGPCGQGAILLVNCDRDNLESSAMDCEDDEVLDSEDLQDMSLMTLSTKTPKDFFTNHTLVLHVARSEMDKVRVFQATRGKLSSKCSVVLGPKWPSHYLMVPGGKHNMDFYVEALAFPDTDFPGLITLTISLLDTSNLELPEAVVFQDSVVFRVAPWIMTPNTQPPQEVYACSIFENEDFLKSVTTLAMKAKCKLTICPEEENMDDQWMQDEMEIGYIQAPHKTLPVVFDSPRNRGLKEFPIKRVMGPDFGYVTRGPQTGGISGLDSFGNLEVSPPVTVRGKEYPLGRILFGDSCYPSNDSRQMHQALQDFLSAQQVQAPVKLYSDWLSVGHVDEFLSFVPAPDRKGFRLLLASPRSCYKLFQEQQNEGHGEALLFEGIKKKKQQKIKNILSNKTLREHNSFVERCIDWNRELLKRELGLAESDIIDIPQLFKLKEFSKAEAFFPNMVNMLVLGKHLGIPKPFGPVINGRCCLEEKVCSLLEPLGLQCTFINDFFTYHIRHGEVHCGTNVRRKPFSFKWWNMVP
Chain of Protein arginine N-methyltransferase 3 (O60678 whole entry): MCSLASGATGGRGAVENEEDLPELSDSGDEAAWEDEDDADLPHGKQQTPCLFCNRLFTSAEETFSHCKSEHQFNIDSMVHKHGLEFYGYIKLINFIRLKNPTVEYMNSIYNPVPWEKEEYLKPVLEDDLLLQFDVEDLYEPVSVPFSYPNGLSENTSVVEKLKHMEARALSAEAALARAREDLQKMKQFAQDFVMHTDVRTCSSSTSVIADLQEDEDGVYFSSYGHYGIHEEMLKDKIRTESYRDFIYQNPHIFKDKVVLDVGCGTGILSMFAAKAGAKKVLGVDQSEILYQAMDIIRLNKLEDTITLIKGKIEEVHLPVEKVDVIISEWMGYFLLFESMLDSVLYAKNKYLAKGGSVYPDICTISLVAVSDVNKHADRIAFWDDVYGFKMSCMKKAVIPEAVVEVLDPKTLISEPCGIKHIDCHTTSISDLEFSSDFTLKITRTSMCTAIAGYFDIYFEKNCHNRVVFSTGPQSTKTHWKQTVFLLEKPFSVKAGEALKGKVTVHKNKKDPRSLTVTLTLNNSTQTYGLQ
Chain of Protein arginine N-methyltransferase 1 (Q99873 whole entry): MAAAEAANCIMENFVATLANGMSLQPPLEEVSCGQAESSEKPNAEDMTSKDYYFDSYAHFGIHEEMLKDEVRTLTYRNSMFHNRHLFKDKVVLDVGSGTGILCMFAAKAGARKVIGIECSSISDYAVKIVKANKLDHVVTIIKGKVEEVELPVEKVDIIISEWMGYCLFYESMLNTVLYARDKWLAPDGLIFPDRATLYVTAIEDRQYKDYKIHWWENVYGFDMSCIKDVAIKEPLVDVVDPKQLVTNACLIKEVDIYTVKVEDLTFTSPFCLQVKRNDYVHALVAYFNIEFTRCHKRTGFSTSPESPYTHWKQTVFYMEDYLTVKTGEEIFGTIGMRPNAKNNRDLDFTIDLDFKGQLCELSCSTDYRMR

In test [1], `CNC(=O)Nc1ccc(-c2nc(N3CC4CCC(C3)O4)c3cnn(C4CCC5(CC4)OCCO5)c3n2)cc1` had an ED50 of 200 nM.

In the case of `CCn1c(-c2nc3cc(C(=O)N4CCCC(N)C4)ccc3n2C)cc2ccccc21` (stereo unspecified), the half-maximal inhibitory concentration (IC50) in test [2] came to 50 nM.

For `COc1cc2c(cc1-c1c(C)noc1C)ncc1[nH]c(=O)n([C@H](C)c3ccccn3)c12`, the IC50 in test [3] was determined as 160 nM; in [4] it was 1260 nM; in test [5] it was 1260 nM; in [6], 1260 nM; in [7] it was 1260 nM; in test [8] it was 160 nM.

Take `c1ccc(-c2oc3ncnc(NC[C@@H]4CCCO4)c3c2-c2ccccc2)cc1`: the midpoint of inhibition on Activated CDC42 kinase 1, the IC50, lay at 2410 nM.

Take `CC(C)Oc1ccc(-c2c[nH]cc2CN(C)CCO)cc1`: the IC50 in test [9], in [10] and in [11] was more than 50000 nM throughout.

For the compound `C=CC(=O)Nc1cc(-n2c(=O)ccc3cnc4ccc(-c5ccc(NS(C)(=O)=O)cc5)cc4c32)ccc1C`, the GIC50 in test [12] was 25 nM; in test [13], 4.38 µM; in [14] it was more than 50 µM; in [15], more than 10 µM; in test [16], 2460 nM; in test [17], 10 µM. For the same compound, the GIC50 in test [18] was 2540 nM; in test [19], more than 10 µM; in [20] it was more than 10 µM; in test [21] it was 5.37 µM; in test [22] it was 2540 nM; in test [23], 4.38 µM. For the same compound, the GIC50 in [24] is 2460 nM; in [25], 5.37 µM.
